Measurements as given in US20050009103A1, “Methods of precise molecular-level determination of ligand-receptor interactions and designing selective drug compounds based on said interactions” (priority 2003, published 2005).
Read-outs that look alike come from different tables or passages of the source.

Experiments:
[1] = tested on: Mouse muscle embryonic nAChR, Tah α150 (ester carbonyl of Trp α149), Leu9′Ser mutation in M2 of the β subunit; format: cell-based
Procedure: (§1) Unnatural amino acids were incorporated into the nAChR using in vivo nonsense suppression methods, and mutant receptors were evaluated electrophysiologically (Dougherty, D. A. (2000) Curr. Opin. Chem. Biol. 4:645-652).
(§2) In studies of weak agonists and/or receptors with diminished binding capability, it is necessary to introduce another mutation that independently decreases EC50. This was accomplished via a Leu-to-Ser mutation in the β subunit at a site known as 9′ in the M2 transmembrane region of the receptor. This M2-β9′ site is almost 50 Å from the binding site, and previous work has shown that a Leu9′Ser mutation lowers the EC50 by a factor of roughly 10 without altering trends in EC50 values (Beene, D. L., et al. (2002) Biochem. 41:10262-9; and Kearney, P. C., et al. (1996) Mil. Pharmacol. 50:1401-1412). […] It is important to note that the EC50 value is not a binding constant, but a composite of equilibria for both binding and gating.
(§3) To evaluate this possibility, the backbone amide at this position was converted to an ester by replacing Thr α150 with the analog α-hydroxy threonine (Tah) using the nonsense suppression methodology (FIG. 9a). Converting an amide carbonyl to an ester carbonyl weakens the hydrogen bonding ability of the oxygen, an effect that has been estimated to be worth ˜[…] (Koh, J. T., et al. (1997) Biochem. 36:11314-22).
(§4) Stage VI oocytes of Xenopus laevis were employed. Oocyte recordings were made 24 to 48 h post injection in two-electrode voltage clamp mode using the OpusXpress™ 6000A (Axon Instruments, Union City, Calif.). Oocytes were superfused with Ca^2+-free ND96 solution at flow rates of 1 ml/min, 4 ml/min during drug application and 3 ml/min during wash. Holding potentials were −60 mV. Data were sampled at 125 Hz and filtered at 50 Hz. Drug applications were 15 s in duration. […] All drugs were prepared in sterile ddi water for dilution into calcium-free ND96. Dose-response data were obtained for a minimum of 10 concentrations of agonists and for a minimum of 7 cells. Dose-response relations were fitted to the Hill equation to determine EC50 and Hill coefficient. EC50 for individual oocytes were averaged to obtain the reported values.
(§5) Synthetic amino acids and α-hydroxy acids were conjugated to the dinucleotide dCA and ligated to truncated 74 nt tRNA as previously described in England, P. M., et al. (1999) supra; and Nowak, M. W., et al. (1998) Methods Enzymol. 293:504-529. Deprotection of amino acyl tRNA was carried out by photolysis immediately prior to co-injection with mRNA, as described in Nowak M. W., et al. (1998) supra; and Li, L. T., et al. (2001) Chem. Biol. 8:47-58. Typically, 25 ng of tRNA were injected per oocyte along with mRNA in a total volume of 50 nl/cell. mRNA was prepared by in vitro runoff transcription using the Ambion (Austin, Tex.) mMessage mMachine kit. Mutation to the amber stop codon at the site of interest was accomplished by standard means and was verified by sequencing through both strands. For nAChR suppression, a total of 4.0 ng of mRNA was injected in the subunit ratio of 10:1:1:1 α:β:γ:δ. In all cases, the β subunit contained a Leu9′Ser mutation, as discussed above. Mouse muscle embryonic nAChR in the pAMV vector was used. In addition, the α subunits contain an HA epitope in the M3-M4 cytoplasmic loop for biochemical studies. […] As a negative control for suppression, truncated 74 nt or truncated tRNA ligated to dCA was co-injected with mRNA in the same manner as fully charged tRNA. […] The positive control for suppression involved wild-type recovery by co-injection with 74 nt tRNA ligated to dCA-Thr or dCA-Trp.

[2] = tested on: Mouse muscle embryonic nAChR, 4,5,6,7-F4-Trp at α149, Leu9′Ser mutation in M2 of the β subunit; experiment: Two-electrode voltage clamp of Xenopus oocytes expressing nAChR, F4-Trp at α149; format: cell-based
Procedure: as §1, §2
Stage VI oocytes of Xenopus laevis were employed. Oocyte recordings were made 24 to 48 h post injection in two-electrode voltage clamp mode using the OpusXpress™ 6000A (Axon Instruments, Union City, Calif.). Oocytes were superfused with Ca^2+-free ND96 solution at flow rates of 1 ml/min, 4 ml/min during drug application and 3 ml/min during wash. Holding potentials were −60 mV. Data were sampled at 125 Hz and filtered at 50 Hz. […]

[3] = molecular target: T1, Mouse muscle embryonic nAChR, Tah α150 (ester carbonyl of Trp α149), Leu9′Ser mutation in M2 of the β subunit (Mus musculus, UniProt P02716+P04756+P04760); format: cell-based; conditions: read-out: EC50, Tah at α150
T1 construct: other: ± standard error of the mean; backbone ester; β Leu9′Ser; Mouse muscle embryonic nAChR in the pAMV vector was used
Procedure: as §1, §2, §3, §4, §5

[4] = molecular target: Mouse muscle embryonic nAChR, Thr α150, Leu9′Ser mutation in M2 of the β subunit (Mus musculus, UniProt P02716+P04756+P04760+P09690, L285S); experiment: cell-based
Procedure: as §1, §2
as §3, with “36:11314-22). […]” for “36:11314-22).”

Mouse muscle embryonic nAChR, Thr α150, Leu9′Ser mutation in M2 of the β subunit, sequence (P04756 21-457): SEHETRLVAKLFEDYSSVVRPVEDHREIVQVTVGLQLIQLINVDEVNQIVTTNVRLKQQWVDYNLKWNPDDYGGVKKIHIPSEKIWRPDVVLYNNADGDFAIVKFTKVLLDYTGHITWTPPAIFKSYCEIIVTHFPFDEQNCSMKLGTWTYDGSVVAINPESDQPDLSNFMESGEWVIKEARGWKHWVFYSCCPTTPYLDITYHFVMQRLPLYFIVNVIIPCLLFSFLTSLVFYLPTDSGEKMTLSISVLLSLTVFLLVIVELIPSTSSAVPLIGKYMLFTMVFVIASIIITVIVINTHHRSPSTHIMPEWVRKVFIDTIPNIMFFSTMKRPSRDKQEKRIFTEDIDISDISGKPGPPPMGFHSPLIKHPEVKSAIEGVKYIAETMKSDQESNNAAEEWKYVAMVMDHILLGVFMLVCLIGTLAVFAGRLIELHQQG
Mouse muscle embryonic nAChR, Thr α150, Leu9′Ser mutation in M2 of the β subunit, sequence (P09690 24-501 L285S): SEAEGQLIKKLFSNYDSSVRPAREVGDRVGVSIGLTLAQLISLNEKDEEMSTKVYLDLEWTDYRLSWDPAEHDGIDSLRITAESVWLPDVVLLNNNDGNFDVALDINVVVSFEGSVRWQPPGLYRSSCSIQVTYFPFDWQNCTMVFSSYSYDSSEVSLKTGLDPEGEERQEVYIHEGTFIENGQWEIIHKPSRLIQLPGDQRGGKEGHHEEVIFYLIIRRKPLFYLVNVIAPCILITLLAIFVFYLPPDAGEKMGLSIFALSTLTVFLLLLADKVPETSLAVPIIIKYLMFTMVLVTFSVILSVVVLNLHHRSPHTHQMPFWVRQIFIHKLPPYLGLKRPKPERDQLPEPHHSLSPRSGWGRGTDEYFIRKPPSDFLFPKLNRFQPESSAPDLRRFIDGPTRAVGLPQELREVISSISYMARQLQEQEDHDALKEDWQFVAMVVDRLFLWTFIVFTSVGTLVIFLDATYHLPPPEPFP
Mouse muscle embryonic nAChR, Thr α150, Leu9′Ser mutation in M2 of the β subunit, sequence (P04760 23-519): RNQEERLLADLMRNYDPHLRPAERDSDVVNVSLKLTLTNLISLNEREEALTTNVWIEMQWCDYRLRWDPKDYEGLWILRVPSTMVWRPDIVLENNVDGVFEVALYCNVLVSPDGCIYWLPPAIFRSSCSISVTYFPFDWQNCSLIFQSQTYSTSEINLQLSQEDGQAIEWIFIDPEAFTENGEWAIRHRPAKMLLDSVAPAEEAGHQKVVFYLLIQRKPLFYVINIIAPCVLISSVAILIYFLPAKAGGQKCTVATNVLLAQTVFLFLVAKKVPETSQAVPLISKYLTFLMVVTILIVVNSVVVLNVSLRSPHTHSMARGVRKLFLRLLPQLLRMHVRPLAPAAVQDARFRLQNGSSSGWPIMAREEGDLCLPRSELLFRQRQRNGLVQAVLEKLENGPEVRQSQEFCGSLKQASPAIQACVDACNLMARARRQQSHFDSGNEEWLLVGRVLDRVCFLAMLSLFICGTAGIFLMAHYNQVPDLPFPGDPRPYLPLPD
Mouse muscle embryonic nAChR, Thr α150, Leu9′Ser mutation in M2 of the β subunit, sequence (P02716 25-520): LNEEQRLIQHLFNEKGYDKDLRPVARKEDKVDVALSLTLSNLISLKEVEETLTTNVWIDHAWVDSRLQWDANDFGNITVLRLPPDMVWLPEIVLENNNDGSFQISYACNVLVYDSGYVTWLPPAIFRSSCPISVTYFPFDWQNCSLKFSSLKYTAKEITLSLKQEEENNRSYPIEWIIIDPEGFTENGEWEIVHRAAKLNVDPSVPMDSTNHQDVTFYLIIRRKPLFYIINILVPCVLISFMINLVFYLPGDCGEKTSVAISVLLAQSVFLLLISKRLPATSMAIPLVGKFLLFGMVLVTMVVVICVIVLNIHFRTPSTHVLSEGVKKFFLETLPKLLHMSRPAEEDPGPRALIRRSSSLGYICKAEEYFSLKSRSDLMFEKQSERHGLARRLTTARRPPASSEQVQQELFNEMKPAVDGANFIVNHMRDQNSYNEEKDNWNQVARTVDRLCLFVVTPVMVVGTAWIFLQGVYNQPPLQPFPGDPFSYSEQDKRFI
T1 sequence (P02716 25-520 limits assumed, change not shown): as the sequence (P02716 25-520) above
T1 sequence (P04756 21-457 limits assumed, change not shown): as the sequence (P04756 21-457) above
T1 sequence (P04760 23-519 limits assumed, change not shown): as the sequence (P04760 23-519) above

Row | Structure (SMILES) | drop in hydrogen bonding strength ([1]; Tah/Thr ratio multiplied by generic 3.3-fold decrease seen with ACh) [fold] | energy corresponding to drop in hydrogen bonding strength ([1]; from corrected fold change) [kcal/mol] | Epi concentrations required by 4,5,6,7-F4-Trp α149 mutant (dose-response unsuccessful) [2] | EC50 [3] [µM] | Tah/Thr (fold increase in EC50 upon ester substitution) [1] | drop in hydrogen bonding strength [1] [fold] | energy corresponding to drop in hydrogen bonding strength [1] [kcal/mol] | EC50 [4] [µM]
1 | Clc1ccc(C2CC3CCC2N3)cn1 (racemic) [Epi, epibatidine] | ~12 | 1.5 | above 100 μM | – | – | – | – | –
2 | CN1CCCC1c1cccnc1 (centres unmarked) [Nic, nicotine] | – | – | – | 92 ± 4 | 1.6 | ~5 | 1.0 | 57 ± 2
